# Test system: 16S RNA versus modified 16S RNA (5IU1495)
# Assay: Dissociation rate of binary ligand complexes versus relative energy (capillary exit-skimmer voltage), ESI-FT-ICR MS
# Type: binding, E. coli
# Conditions: Example 8: 2-deoxystreptamine 100 μM, RNAs 2.5 μM each
# Procedure: The following examples illustrate preferred embodiments of the present invention using mass spectrometry. Experiments were performed using a 7.0 Tesla Fourier transform ion cyclotron resonance (FT-ICR) mass spectrometer with an electrospray ionization source operating in the negative mode. A −3000 V difference was employed between the spray tip and the inlet capillary to generate the electrospray. Samples were introduced at a flow rate of 1.5 uL/min using a Harvard syringe pump and a 50 uL glass syringe. The desolvation of the electrospray droplets was aided by a flow of countercurrent gas at 1 L/min. Ions were accumulated for 1.0 sec in an intermediate hexapole ion storage region at 1.0×10^−5 mbar. Following transfer to the FT-ICR analysis cell, the image current was measured over a mass range of 500-4000 m/z. Typically, a total of 32 transients containing 512 kbytes were summed prior to Fourier transformation. […]
# An aqueous solution containing 50 mM ammonium acetate buffer (pH 7.0), 33% isopropyl alcohol, 2-deoxystreptamine (100 μM), 16S RNA (2.5 μM) and a modified 16S RNA (2.5 μM) was prepared. […] The peaks were integrated and ion abundances determined for each of the separate runs. Fractions of 16S+2-DOS and 5IU1495+2-DOS complexes were determined and plotted according to relative energy as depicted in FIG. 6. […]
smiles,measurement,setting,value
N[C@@H]1C[C@H](N)[C@@H](O)C(O)[C@H]1O (some centres unmarked) [2-deoxystreptamine],"Difference in dissociation rate (slope) between the 16S and 5IU1495 systems, first region",1 to 2 relative energy units (FIG. 6),about 25%
same,"Dissociation rate (slope) of 16S versus 5IU1495 systems, higher energy region",2 to 4 relative energy units (FIG. 6),substantially equal

# From patent US6787315B2, “Methods for identifying ligand binding sites in a biomolecule” (priority 2001, dated 2004)
